Experimental data: ChEMBL document CHEMBL1201862, “PubChem BioAssay data set” (2004)
Active and inactive are the calls of the source.

What was measured:
[1] = molecular target: T1, Sentrin-specific protease 8 (Homo sapiens, UniProt Q96LD8); format: functional
T1 sequence (Q96LD8 whole entry): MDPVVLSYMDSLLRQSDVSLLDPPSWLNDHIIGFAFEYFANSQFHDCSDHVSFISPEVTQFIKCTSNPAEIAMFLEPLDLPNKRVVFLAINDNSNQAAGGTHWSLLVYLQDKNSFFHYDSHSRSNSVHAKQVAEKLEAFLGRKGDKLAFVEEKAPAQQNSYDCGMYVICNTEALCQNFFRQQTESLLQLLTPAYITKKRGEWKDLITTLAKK

[2] = molecular target: T1, Sentrin-specific protease 8; format: functional; remark: listed apart in the source
HEK293 = test: inhibitors of LMP1-driven NF-kB reporter, dose response, cell-based, HEK293, luciferase, cherry-pick (AID 588343); format: functional; settings: Homo sapiens
[3] = LGR2 antagonists, dose response, cell-based, HEK293, CRE-luciferase reporter, cherry pick, set 2 (AID 743343); format: functional;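 also: transfected cells were stimulated with diluted bursicon conditioned medium after compound addition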
[4] = MC4R antagonists, dose response, counter-screen for LGR2 antagonist project, cell-based, plate reader, cherry pick (AID 743444); format: functional;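 also: transfected HEK 293 cells stimulated with alpha-MSH peptide; potency of inhibitors of the alpha-MSH evoked signal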
[5] = A549 cell cytotoxicity, dose response, cytotoxicity control, plate reader, cherry-pick, antagonist series (AID 743412); format: functional, cell-based
Beta-galactosidase = Beta-galactosidase (Escherichia coli, UniProt Q8VNN2); test: Dose response counterscreen for EBI2 assay utilizing the enzyme, b-galactosidase.; format: functional
Protein RecA = molecular target: T2, Protein RecA (Mycobacterium tuberculosis, UniProt P9WHJ3); test: Fluorescence Cell-Free Homogeneous Dose Retest to Identify Inhibitors of RecA-Intein Splicing Activity. [Related pubchem assays (depositor defined):AID2097, AID2223, AID489010, AID492950]; format: functional
T2 sequence (P9WHJ3 whole entry): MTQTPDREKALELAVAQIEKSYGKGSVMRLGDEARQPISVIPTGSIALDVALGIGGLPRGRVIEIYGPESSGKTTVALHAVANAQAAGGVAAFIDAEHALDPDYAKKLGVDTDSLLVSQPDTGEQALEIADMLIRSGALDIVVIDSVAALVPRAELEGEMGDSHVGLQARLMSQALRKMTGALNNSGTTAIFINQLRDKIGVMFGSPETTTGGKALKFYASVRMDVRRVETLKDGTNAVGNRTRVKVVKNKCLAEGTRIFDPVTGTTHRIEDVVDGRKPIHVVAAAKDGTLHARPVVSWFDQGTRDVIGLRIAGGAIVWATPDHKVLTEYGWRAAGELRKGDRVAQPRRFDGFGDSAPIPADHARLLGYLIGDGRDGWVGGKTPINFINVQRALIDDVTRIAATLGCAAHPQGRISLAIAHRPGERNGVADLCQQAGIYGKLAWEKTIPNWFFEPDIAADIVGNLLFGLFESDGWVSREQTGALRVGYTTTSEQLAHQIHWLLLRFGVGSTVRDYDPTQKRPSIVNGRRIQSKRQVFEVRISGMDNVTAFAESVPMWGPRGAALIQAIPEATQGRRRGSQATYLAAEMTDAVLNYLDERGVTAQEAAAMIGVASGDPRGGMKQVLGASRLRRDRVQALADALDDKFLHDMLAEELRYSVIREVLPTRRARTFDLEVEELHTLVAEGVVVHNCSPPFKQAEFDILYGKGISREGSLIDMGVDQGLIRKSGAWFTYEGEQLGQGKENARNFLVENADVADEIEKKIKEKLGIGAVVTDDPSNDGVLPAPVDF

[6] = molecular target: T3, Replicative DNA helicase DnaB (Mycobacterium tuberculosis, UniProt P9WMR3); test: DnaB intein splicing inhibitors, dose response, biochemical, cell-free fluorescence (AID 449749); format: functional
T3 sequence (P9WMR3 whole entry): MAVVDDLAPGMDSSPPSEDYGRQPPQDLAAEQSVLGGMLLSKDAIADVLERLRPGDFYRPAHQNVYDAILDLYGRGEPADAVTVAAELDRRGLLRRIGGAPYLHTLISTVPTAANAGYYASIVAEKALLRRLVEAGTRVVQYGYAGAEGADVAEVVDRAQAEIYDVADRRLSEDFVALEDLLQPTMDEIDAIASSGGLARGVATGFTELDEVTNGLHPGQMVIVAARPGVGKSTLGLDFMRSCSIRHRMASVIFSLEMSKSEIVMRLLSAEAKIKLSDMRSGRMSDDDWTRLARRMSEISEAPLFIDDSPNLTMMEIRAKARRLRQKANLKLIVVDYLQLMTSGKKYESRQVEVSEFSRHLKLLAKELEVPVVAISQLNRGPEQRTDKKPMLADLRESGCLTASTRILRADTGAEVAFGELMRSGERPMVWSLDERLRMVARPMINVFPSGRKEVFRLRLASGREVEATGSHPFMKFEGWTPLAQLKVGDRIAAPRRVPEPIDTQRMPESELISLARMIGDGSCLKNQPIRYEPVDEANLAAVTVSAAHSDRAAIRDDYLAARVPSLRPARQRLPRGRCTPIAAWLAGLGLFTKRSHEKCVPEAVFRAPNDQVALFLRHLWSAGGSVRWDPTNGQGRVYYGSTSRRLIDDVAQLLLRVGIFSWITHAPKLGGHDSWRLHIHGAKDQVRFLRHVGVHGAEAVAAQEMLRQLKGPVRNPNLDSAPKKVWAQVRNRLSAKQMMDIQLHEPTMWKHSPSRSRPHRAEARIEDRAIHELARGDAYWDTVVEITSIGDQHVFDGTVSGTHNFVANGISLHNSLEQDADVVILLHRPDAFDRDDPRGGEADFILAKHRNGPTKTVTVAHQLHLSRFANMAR

Sequence of Beta-galactosidase (Q8VNN2 whole entry): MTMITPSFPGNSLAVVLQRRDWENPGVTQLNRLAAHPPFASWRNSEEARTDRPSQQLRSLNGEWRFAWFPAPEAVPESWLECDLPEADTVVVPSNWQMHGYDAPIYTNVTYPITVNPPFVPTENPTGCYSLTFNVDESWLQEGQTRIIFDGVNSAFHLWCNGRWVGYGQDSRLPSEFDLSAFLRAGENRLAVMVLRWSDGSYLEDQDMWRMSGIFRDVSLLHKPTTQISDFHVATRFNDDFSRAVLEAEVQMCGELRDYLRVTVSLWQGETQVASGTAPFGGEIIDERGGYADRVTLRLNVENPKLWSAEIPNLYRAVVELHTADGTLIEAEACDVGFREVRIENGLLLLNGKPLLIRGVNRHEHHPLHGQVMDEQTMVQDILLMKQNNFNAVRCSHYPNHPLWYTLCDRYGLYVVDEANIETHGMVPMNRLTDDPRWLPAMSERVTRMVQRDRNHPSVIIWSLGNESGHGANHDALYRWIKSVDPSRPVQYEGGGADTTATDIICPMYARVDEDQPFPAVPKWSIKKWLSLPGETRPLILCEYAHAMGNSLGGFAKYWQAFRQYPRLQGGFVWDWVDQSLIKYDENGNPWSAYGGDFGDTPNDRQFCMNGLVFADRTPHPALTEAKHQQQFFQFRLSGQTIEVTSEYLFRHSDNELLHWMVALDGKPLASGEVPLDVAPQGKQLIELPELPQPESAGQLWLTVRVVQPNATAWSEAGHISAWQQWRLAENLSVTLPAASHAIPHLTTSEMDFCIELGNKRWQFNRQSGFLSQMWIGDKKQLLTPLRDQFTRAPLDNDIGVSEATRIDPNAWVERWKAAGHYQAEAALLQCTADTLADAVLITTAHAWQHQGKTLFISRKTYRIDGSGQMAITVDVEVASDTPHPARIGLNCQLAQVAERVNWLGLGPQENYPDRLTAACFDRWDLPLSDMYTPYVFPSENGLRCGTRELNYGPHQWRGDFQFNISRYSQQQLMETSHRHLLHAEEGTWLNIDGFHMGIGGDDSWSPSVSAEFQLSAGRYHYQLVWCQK

For `Cc1ccc(C)c(N/C([S-])=C(/C(=O)c2ccc(Cl)s2)[n+]2ccccc2)c1`, the IC50 [1] was 5.82 µM (active) and the IC50 [2] was 9.94 µM (active).

In the case of `COC(=O)CCCC1=CC2=CC(=O)C(C)(OC(=O)c3cccs3)C(=O)C2=CN1CCCCO` (stereo not given), the IC50 [1] is reported as 5.99 µM (active) and the IC50 [2] is reported as 7.79 µM (active).

With `COc1ccc(-n2cc(C(=O)c3ccccc3O)cn2)cc1` the AC50 (HEK293) was 2.43 µM (active), the AC50 [3] was 8.21 µM (active) and the AC50 [4] was 10.7 µM (active). The AC50 [5] was > 52 µM (inactive).

With `O=C(COc1ccc(Cl)cc1)N1CCN(S(=O)(=O)c2ccc(Cl)cc2)CC1` the IC50 (Beta-galactosidase) was > 80 µM (inactive).

For `O=C(c1ccco1)N1CCN(C(=O)c2cc3c(s2)-c2ccccc2OC3)CC1`, the IC50 (Beta-galactosidase) was > 80 µM (inactive).

In the case of `N#CC(=C1CCCC1)c1nc(-c2ccc(Cl)cc2)cs1`, the IC50 (Beta-galactosidase) is reported as > 80 µM (inactive).

In the case of `Cc1[nH][nH]c(=O)c1C(c1ccc(-c2ccc(Cl)c(Cl)c2)o1)c1c(C)[nH][nH]c1=O`, the IC50 [1] is reported as 8.73 µM (active), the EC50 (Protein RecA) is reported as 0.305 µM (active) and the AC50 [6] is reported as 0.281 µM (active). The IC50 [2] was 18.8 µM (active).
